# Measured values: patent US6713056B1, “Combined preparation for the treatment of neoplasic diseases or of infectious diseases” (I.D.M. Immuno-Designed Molecules, priority 1998, dated 2004)
# Key:
# [1] = tested on: human carcinoma solid tumors; experiment: Nude mice with human carcinoma solid tumors: cytotoxic drugs, then activated human macrophages, then the same drugs; assay type: in vivo; settings: after macrophage injection; drugs used alone or in combination
# Source text: 2) Nude mice inoculated with human carcinoma solid tumors are initially treated with cytotoxic drugs (Adriamycin, Etretinate, Taxotere), used alone or in combination.
# [2] = tested on: 16R-OV1/DDP human ovary cancer cell line; experiment: Survival of cisplatin-resistant ovary cancer cells grown with MAK for 24 hours, then with cisplatin (FIG. 3); assay type: cell-based; settings: cisplatin alone at maximal dose 10^-3 M
# Procedure: The percentage of tumor cell survival is measured according to the method described in “Feasibility of drug screening with panels of human tumor cell lines using a microculture tetrazolium assay” (Alley M. C., Scudiero D. A., Monks A., et al.; Cancer Res., 1988, 48: 489-501), and is plotted against the dose of cisplatin (abscissa) in the test tube (molar concentration).
# FIG. 3 represents the percentage of cellular survival as a function of cisplatin concentration (M).
# The curve with hollow circles corresponds to the use of cisplatin alone.
# The plain curve corresponds to the use of MAK alone.
# The curve with black squares corresponds to the use of the combination of MAK followed by cisplatin.
# The curve with hollow triangles corresponds to the theoretical additive curve of a treatment with MAK alone and a treatment with cisplatin alone.
# 16R-OV1/DDP human ovary cancer cell line was rendered resistant to cisplatinum by continuous exposure to increasing concentrations of cisplatin (Fajac A., et al. Cisplatin induced apoptosis and p.53 gene status in a cisplatin resistant human ovarian carcinoma cell line. Int. J. Cancer 68, 67-74, 1996). The cells are grown at 37° C., 5% CO2 in RPMI 1640 medium in the presence of activated human macrophages (MAK) during 24 hours and then with cisplatin at increasing concentrations. […]
# solid carcinoma = experiment: Mice bearing solid carcinoma: apoptosis-inducing drug plus monocyte derived cells; assay type: in vivo, C57B16 mice; settings: drug intraperitoneally, 24 h later 0.1 million monocyte derived cells in tumor periphery; seen only after combined treatment
# Procedure: 7) C57B16 mice bearing solid carcinoma are injected intraperitonealy with a drug inducing apoptosis (1 mg mitomycin C or 0.1 mg sodium butyrate). After 24 h, mice are injected with 0.1 million monocyte derived cells in tumor periphery. […] In another protocol, carcinoma cells are treated in vitro with 0.01 mM sodium butyrate, and then submitted to phagocytosis by murine monocyte derived cells.
SMILES,effect of second treatment with the same cytotoxic drugs (subcutaneous tumor size) [1],tumor outcome after combined treatment (solid carcinoma),also measured
COc1cccc2c1C(=O)c1c(O)c3c(c(O)c1C2=O)C[C@@](O)(C(=O)CO)C[C@@H]3O[C@H]1C[C@H](N)[C@H](O)[C@H](C)O1 [Adriamycin],further antitumoral effect,–,–
"N.N.[Cl][Pt][Cl] [Cisplatin, cisplatin]",–,–,inhibition of survival [2]: 35%
CCOC(=O)/C=C(C)/C=C/C=C(C)/C=C/c1c(C)cc(OC)c(C)c1C [Etretinate],further antitumoral effect,–,–
CC(=O)O[C@@]12CO[C@@H]1C[C@H](O)[C@@]1(C)C(=O)[C@H](O)C3=C(C)[C@@H](OC(=O)[C@H](O)[C@@H](NC(=O)OC(C)(C)C)c4ccccc4)C[C@@](O)([C@@H](OC(=O)c4ccccc4)[C@H]21)C3(C)C [Taxotere],further antitumoral effect,–,–
CO[C@@]12[C@H](COC(N)=O)C3=C(C(=O)C(C)=C(N)C3=O)N1C[C@@H]1N[C@@H]12 [mitomycin C],–,Tumor regression and protection against further tumor challenge,–
CCCC(=O)[O-].[Na+] [sodium butyrate],–,Tumor regression and protection against further tumor challenge,–
